Columns and labels:
TNF-α = assay: LPS-stimulated whole bovine blood assay, MSD cytokine detection; assay type: cell-based; settings: Bos taurus, LPS-stimulated bovine whole blood; read-out: TNF-α (IC50 μM)
IL-1β = assay: as above; assay type: cell-based; settings: overstimulation of IL-1β, LPS-stimulated bovine whole blood
IL-6 = assay: as above; assay type: cell-based; settings: Bos taurus, LPS-stimulated bovine whole blood; read-out: IL-6 (IC50 μM)
Excerpt: In order to correlate RNA sequencing data to cytokine changes the whole blood assay was utilized. […] The enhancement result represents an overall stimulation of cytokine levels due to cellular stress or potential toxicity with increasing concentrations of the compound, representing a typical bell shape response curve for immunomodulatory activity.

[1] = tested on: BRD pathogens, M. haemolytica and P. multocida; assay: MIC screening panel of BRD pathogens (antibacterial / non-antibacterial); settings: read-out: antibacterial / non-antibacterial (MIC for the BRD pathogens)

| Compound | IC50 (TNF-α) | IC50 (IL-6) | IL-1β OS of LPS (IL-1β) | MIC [1] |
| --- | --- | --- | --- | --- |
| CC[C@H]1OC(=O)[C@H](C)[C@@H](O[C@H]2C[C@@](C)(OC)[C@](O)(CNCC(C)C)[C@H](C)O2)[C@H](C)[C@@H](O[C@@H]2O[C@H](C)C[C@H](N(C)C(=O)N(C)c3ccccc3)[C@H]2O)[C@](C)(O)C[C@@H](C)CN[C@H](C)[C@@H](O)[C@]1(C)O [Example H-24, 1-((2S,3R,4S,6R)-2-(((2R,3S,4R,5R,8R,10R,11R,12S,13S,14R)-2-ethyl-3,4,10-trihydroxy-13-(((2R,4R,5S,6S)-5-hydroxy-5-((isobutylamino)methyl)-4-methoxy-4,6-dimethyltetrahydro-2H-pyran-2-yl)oxy)-3,5,8,10,12,14-hexamethyl-15-oxo-1-oxa-6-azacyclopentadecan-11-yl)oxy)-3-hydroxy-6-methyltetrahydro-2H-pyran-4-yl)-1,3-dimethyl-3-phenylurea] | 23 µM | 30 µM | 16 µM | > 64 µg/mL |
| CC[C@H]1OC(=O)[C@H](C)[C@@H](O[C@H]2C[C@@](C)(OC)[C@](O)(CNCCCn3ccnc3)[C@H](C)O2)[C@H](C)[C@@H](O[C@@H]2O[C@H](C)C[C@H](N(C)C(=O)N(C)c3ccccc3)[C@H]2O)[C@](C)(O)C[C@@H](C)CN[C@H](C)[C@@H](O)[C@]1(C)O [Example H-25, 1-((2S,3R,4S,6R)-2-(((2R,3S,4R,5R,8R,10R,11R,12S,13S,14R)-13-(((2R,4R,5S,6S)-5-(((3-(1H-imidazol-1-yl)propyl)amino)methyl)-5-hydroxy-4-methoxy-4,6-dimethyltetrahydro-2H-pyran-2-yl)oxy)-2-ethyl-3,4,10-trihydroxy-3,5,8,10,12,14-hexamethyl-15-oxo-1-oxa-6-azacyclopentadecan-11-yl)oxy)-3-hydroxy-6-methyltetrahydro-2H-pyran-4-yl)-1,3-dimethyl-3-phenylurea] | 19 µM | 22 µM | 16 µM | > 64 µg/mL |
| CC[C@H]1OC(=O)[C@H](C)[C@@H](O[C@H]2C[C@@](C)(OC)[C@](O)(CNCCC(C)C)[C@H](C)O2)[C@H](C)[C@@H](O[C@@H]2O[C@H](C)C[C@H](N(C)C(=O)N(C)c3ccccc3)[C@H]2O)[C@](C)(O)C[C@@H](C)CN[C@H](C)[C@@H](O)[C@]1(C)O [Example H-29, 1-((2S,3R,4S,6R)-2-(((2R,3S,4R,5R,8R,10R,11R,12S,13S,14R)-2-ethyl-3,4,10-trihydroxy-13-(((2R,4R,5S,6S)-5-hydroxy-5-((isopentylamino)methyl)-4-methoxy-4,6-dimethyltetrahydro-2H-pyran-2-yl)oxy)-3,5,8,10,12,14-hexamethyl-15-oxo-1-oxa-6-azacyclopentadecan-11-yl)oxy)-3-hydroxy-6-methyltetrahydro-2H-pyran-4-yl)-1,3-dimethyl-3-phenylurea] | 50 µM | 50 µM | 3 µM | > 64 µg/mL |
| CC[C@H]1OC(=O)[C@H](C)[C@@H](O[C@H]2C[C@@](C)(OC)[C@](O)(CNCC3CCN(C(C)=O)CC3)[C@H](C)O2)[C@H](C)[C@@H](O[C@@H]2O[C@H](C)C[C@H](N(C)C(=O)N(C)c3ccccc3)[C@H]2O)[C@](C)(O)C[C@@H](C)CN[C@H](C)[C@@H](O)[C@]1(C)O [Example H-31, 1-((2S,3R,4S,6R)-2-(((2R,3S,4R,5R,8R,10R,11R,12S,13S,14R)-13-(((2R,4R,5S,6S)-5-((((1-acetylpiperidin-4-yl)methyl)amino)methyl)-5-hydroxy-4-methoxy-4,6-dimethyltetrahydro-2H-pyran-2-yl)oxy)-2-ethyl-3,4,10-trihydroxy-3,5,8,10,12,14-hexamethyl-15-oxo-1-oxa-6-azacyclopentadecan-11-yl)oxy)-3-hydroxy-6-methyltetrahydro-2H-pyran-4-yl)-1,3-dimethyl-3-phenylurea] | 41 µM | 41 µM | 81 µM | > 64 µg/mL |
| CC[C@H]1OC(=O)[C@H](C)[C@@H](O[C@H]2C[C@@](C)(OC)[C@](O)(CNCCC3CCOCC3)[C@H](C)O2)[C@H](C)[C@@H](O[C@@H]2O[C@H](C)C[C@H](N(C)C(=O)N(C)c3ccccc3)[C@H]2O)[C@](C)(O)C[C@@H](C)CN[C@H](C)[C@@H](O)[C@]1(C)O [Example H-33, 1-((2S,3R,4S,6R)-2-(((2R,3S,4R,5R,8R,10R,11R,12S,13S,14R)-2-ethyl-3,4,10-trihydroxy-13-(((2R,4R,5S,6S)-5-hydroxy-4-methoxy-4,6-dimethyl-5-(((2-(tetrahydro-2H-pyran-4-yl)ethyl)amino)methyl)tetrahydro-2H-pyran-2-yl)oxy)-3,5,8,10,12,14-hexamethyl-15-oxo-1-oxa-6-azacyclopentadecan-11-yl)oxy)-3-hydroxy-6-methyltetrahydro-2H-pyran-4-yl)-1,3-dimethyl-3-phenylurea] | 37 µM | 57 µM | 6 µM | > 64 µg/mL |

Molecules with a lower IC50 (TNF-α), results first:

| IC50 (TNF-α) | IC50 (IL-6) | Compound | IL-1β OS of LPS (IL-1β) | MIC [1] |
| --- | --- | --- | --- | --- |
| 6 µM | 5 µM | CCCNC[C@]1(O)[C@H](C)O[C@@H](O[C@H]2[C@H](C)[C@@H](O[C@@H]3O[C@H](C)C[C@H](N(CCC)C(=O)N(C)c4ccc(C(F)(F)F)cc4)[C@H]3O)[C@](C)(O)C[C@@H](C)CN[C@H](C)[C@@H](O)[C@](C)(O)[C@@H](CC)OC(=O)[C@@H]2C)C[C@@]1(C)OC [Example H-8, 1-((2S,3R,4S,6R)-2-(((2R,3S,4R,5R,8R,10R,11R,12S,13S,14R)-2-ethyl-3,4,10-trihydroxy-13-(((2R,4R,5S,6S)-5-hydroxy-4-methoxy-4,6-dimethyl-5-((propylamino)methyl)tetrahydro-2H-pyran-2-yl)oxy)-3,5,8,10,12,14-hexamethyl-15-oxo-1-oxa-6-azacyclopentadecan-11-yl)oxy)-3-hydroxy-6-methyltetrahydro-2H-pyran-4-yl)-3-methyl-1-propyl-3-(4-(trifluoromethyl)phenyl)urea] | 1 µM | > 64 µg/mL |
| 8 µM | 17 µM | CC[C@H]1OC(=O)[C@H](C)[C@@H](O[C@H]2C[C@@](C)(OC)[C@](O)(CNC3CC3)[C@H](C)O2)[C@H](C)[C@@H](O[C@@H]2O[C@H](C)C[C@H](N(C)C(=O)N(C)c3ccccc3)[C@H]2O)[C@](C)(O)C[C@@H](C)CN[C@H](C)[C@@H](O)[C@]1(C)O [Example H-27, 1-((2S,3R,4S,6R)-2-(((2R,3S,4R,5R,8R,10R,11R,12S,13S,14R)-13-(((2R,4R,5S,6S)-5-((cyclopropylamino)methyl)-5-hydroxy-4-methoxy-4,6-dimethyltetrahydro-2H-pyran-2-yl)oxy)-2-ethyl-3,4,10-trihydroxy-3,5,8,10,12,14-hexamethyl-15-oxo-1-oxa-6-azacyclopentadecan-11-yl)oxy)-3-hydroxy-6-methyltetrahydro-2H-pyran-4-yl)-1,3-dimethyl-3-phenylurea] | 16 µM | > 64 µg/mL |
| 13 µM | 8 µM | CCCCNC[C@]1(O)[C@H](C)O[C@@H](O[C@H]2[C@H](C)[C@@H](O[C@@H]3O[C@H](C)C[C@H](N(C)C(=O)N(C)c4ccccc4)[C@H]3O)[C@](C)(O)C[C@@H](C)CN[C@H](C)[C@@H](O)[C@](C)(O)[C@@H](CC)OC(=O)[C@@H]2C)C[C@@]1(C)OC [Example H-28, 1-((2S,3R,4S,6R)-2-(((2R,3S,4R,5R,8R,10R,11R,12S,13S,14R)-13-(((2R,4R,5S,6S)-5-((butylamino)methyl)-5-hydroxy-4-methoxy-4,6-dimethyltetrahydro-2H-pyran-2-yl)oxy)-2-ethyl-3,4,10-trihydroxy-3,5,8,10,12,14-hexamethyl-15-oxo-1-oxa-6-azacyclopentadecan-11-yl)oxy)-3-hydroxy-6-methyltetrahydro-2H-pyran-4-yl)-1,3-dimethyl-3-phenylurea] | 17 µM | > 64 µg/mL |
| 11 µM | 8 µM | CC[C@H]1OC(=O)[C@H](C)[C@@H](O[C@H]2C[C@@](C)(OC)[C@](O)(CNc3ccccc3)[C@H](C)O2)[C@H](C)[C@@H](O[C@@H]2O[C@H](C)C[C@H](N(C)C(=O)N(C)c3ccccc3)[C@H]2O)[C@](C)(O)C[C@@H](C)CN[C@H](C)[C@@H](O)[C@]1(C)O [Example H-32, 1-((2S,3R,4S,6R)-2-(((2R,3S,4R,5R,8R,10R,11R,12S,13S,14R)-2-ethyl-3,4,10-trihydroxy-13-(((2R,4R,5S,6S)-5-hydroxy-4-methoxy-4,6-dimethyl-5-((phenylamino)methyl)tetrahydro-2H-pyran-2-yl)oxy)-3,5,8,10,12,14-hexamethyl-15-oxo-1-oxa-6-azacyclopentadecan-11-yl)oxy)-3-hydroxy-6-methyltetrahydro-2H-pyran-4-yl)-1,3-dimethyl-3-phenylurea] | 44 µM | > 64 µg/mL |
| 8 µM | 12 µM | CC[C@H]1OC(=O)[C@H](C)[C@@H](O[C@H]2C[C@@](C)(OC)[C@](O)(CN(C)C3CCC3)[C@H](C)O2)[C@H](C)[C@@H](O[C@@H]2O[C@H](C)C[C@H](N(C)C(=O)N(C)c3ccccc3)[C@H]2O)[C@](C)(O)C[C@@H](C)CN[C@H](C)[C@@H](O)[C@]1(C)O [Example H-37, 1-((2S,3R,4S,6R)-2-(((2R,3S,4R,5R,8R,10R,11R,12S,13S,14R)-13-(((2R,4R,5S,6S)-5-((cyclobutyl(methyl)amino)methyl)-5-hydroxy-4-methoxy-4,6-dimethyltetrahydro-2H-pyran-2-yl)oxy)-2-ethyl-3,4,10-trihydroxy-3,5,8,10,12,14-hexamethyl-15-oxo-1-oxa-6-azacyclopentadecan-11-yl)oxy)-3-hydroxy-6-methyltetrahydro-2H-pyran-4-yl)-1,3-dimethyl-3-phenylurea] | 40 µM | > 64 µg/mL |

— patent US12295936B2, “Immunomodulating urea azalides” (Zoetis Services LLC, priority 2020, dated 2025)
